Experimental data reported in patent US12275734B1, “Pleuromutilin onium salt derivative containing a 3H-imidazo[4,5-c]pyridine side chain, and a preparation method and application thereof” (SHAANXI UNIVERSITY OF SCIENCE AND TECHNOLOGY, priority 2024, dated 2025).

How the values were obtained:
Assay in all cases: MIC, broth microdilution
Assay type in all cases: cell-based
A. baumannii ATCC 19606 = conditions: Acinetobacter baumannii, ATCC19606; A. baumannii ATCC 19606; read-out: Minimum inhibitory concentration A.b.^f
Protocol: (§1) The minimum inhibitory concentration of 3H-imidazo[4,5-C]pyridine pleuromutilin onium salt derivatives against the tested pathogenic microorganisms were determined by broth microdilution method, with valnemulin and retapamulin as positive controls.
(§2) The experimental strains included resistant Gram-positive bacteria: Methicillin-resistant S. aureus ATCC 33591; Methicillin-resistant S. aureus ATCC 43300; S. aureus ATCC 29213; Methicillin-resistant S. epidermidis ATCC 51625. Resistant Gram-negative bacteria: A. baumannii ATCC 19606; S. enterica ATCC14028; E. coli ATCC 25922; E. coli CMCC 44103. 9 clinically isolated resistant strains: MRSA-171; MRSA-575; MRSA-206; MRSA-222; MRSA-596; VRE-80; MDR-PA-126; MDR-KP-893; CR-AB-882.
(§3) (1) Preparation of MHB medium: Weigh 18.0 g of MHB medium pre-made powder, add it to 1 L of distilled water, heat and boil until completely dissolved, divide it into conical bottles, sterilize it by high pressure at 121° C. for 15 minutes, and set aside.
(§4) (2) Cultivate the experimental strain to the logarithmic growth phase: Under sterile conditions, inoculate the experimental strain into fresh MHB medium and culture it in a 37° C. constant temperature and humidity incubator for 16-24 hours. Adjust the bacterial solution concentration to 1.5×10^8 CFU/mL and then dilute it 200 times for later use.
(§5) (3) Preparation of storage solution: Weigh the sample to be tested, dissolve it in 1% DMSO solution, and prepare a storage solution with a concentration of 2560 μg/mL; weigh the positive control, dissolve it in sterile distilled water, and prepare a storage solution with a concentration of 2560 μg/mL.
(§6) (4) Preparation of bacterial suspension: Under sterile conditions, the experimental strain cultured to the logarithmic growth phase was calibrated to a 0.5 McFarland unit turbidity standard using MHB medium and then diluted at a ratio of 1:200 to prepare a bacterial suspension with a concentration of 5×10^5 CFU/mL for later use.
(§7) (5) Determination of MIC by two-fold microdilution method: Take a sterile 96-well plate, add 10 μL of the test compound at a concentration of 2560 μg/mL, and perform serial dilutions by the two-fold dilution method. At the same time, set up a negative control group without drug. Then add 190 μL of diluted bacterial solution to each well, so that the final bacterial solution concentration in each well is 5×10^5 CFU/mL, and incubate in a 37° C. constant temperature and humidity chamber for 24 hours.

E. coli ATCC 25922 = conditions: Escherichia coli, ATCC25922; E. coli ATCC 25922; read-out: Minimum inhibitory concentration E.c.^h
Protocol: as §1, §2, §3, §4, §5, §6, §7

E.coli CMCC 44103 = conditions: Escherichia coli, CMCC44103; E.coli CMCC 44103; read-out: Minimum inhibitory concentration E.c.^i
Protocol: as §1, §2, §3, §4, §5, §6, §7

[1] = system: Methicillin-resistant S. aureus ATCC 33591; conditions: Staphylococcus aureus, ATCC 33591 / MRSA; Methicillin-resistant S. aureus ATCC 33591; read-out: Minimum inhibitory concentration MRSA^b
Protocol: as §1, §2, §3, §4, §5, §6, §7

[2] = system: Methicillin-resistant S. aureus ATCC 43300; conditions: Staphylococcus aureus, ATCC 43300 / MRSA; Methicillin-resistant S. aureus ATCC 43300; read-out: Minimum inhibitory concentration MRSA^c
Protocol: as §1, §2, §3, §4, §5, §6, §7

[3] = system: Methicillin-resistant S. epidermidis ATCC 51625; conditions: Staphylococcus epidermidis, ATCC 51625 / MRSE; Methicillin-resistant S. epidermidis ATCC 51625; read-out: Minimum inhibitory concentration MRSE^e
Protocol: as §1, §2, §3, §4, §5, §6, §7

S. aureus ATCC 29213 = conditions: Staphylococcus aureus, ATCC29213; S. aureus ATCC 29213; read-out: Minimum inhibitory concentration S.a.^d
Protocol: as §1, §2, §3, §4, §5, §6, §7

S. enterica ATCC14028 = conditions: Salmonella enterica; S. enterica ATCC14028; read-out: Minimum inhibitory concentration S.e.^g
Protocol: as §1, §2, §3, §4, §5, §6, §7

Row | MIC (A. baumannii ATCC 19606) [µg/mL] | MIC (E. coli ATCC 25922) [µg/mL] | MIC (E.coli CMCC 44103) [µg/mL] | MIC [1] [µg/mL] | MIC [2] [µg/mL] | MIC [3] [µg/mL] | MIC (S. aureus ATCC 29213) [µg/mL] | MIC (S. enterica ATCC14028) [µg/mL] | SMILES
1 | 32 | 16 | 8 | 8 | 4 | 16 | 8 | 4 | C=C[C@]1(C)C[C@@H](OC(=O)CSc2nc3cc[n+](Cc4ccc(Br)cc4)cc3[nH]2)[C@]2(C)[C@H](C)CC[C@]3(CCC(=O)[C@H]32)[C@@H](C)[C@@H]1O [Compound a, 5-(4-bromobenzyl)-2-((2-(((3aR,4R,5R,7S,8S,9R,9aS,12R)-8-hydroxy-4,7,9,12-tetramethyl-3-oxo-7-vinyldecahydro-4,9a-propancyclopenta[8]cyclo-5-yl)oxy)-2-oxoethyl)thio)-3H-imidazo[4,5-c]pyridin-5-ium]
2 | 16 | 64 | 8 | 32 | 16 | 32 | 4 | 8 | C=C[C@]1(C)C[C@@H](OC(=O)CSc2nc3cc[n+](Cc4ccc(-c5ccccc5)cc4)cc3[nH]2)[C@]2(C)[C@H](C)CC[C@]3(CCC(=O)[C@H]32)[C@@H](C)[C@@H]1O [Compound j, 5-([1,1′-biphenyl]-4-ylmethyl)-2-((2-(((3aR,4R,5R,7S,8S,9R,9aS,12R)-8-hydroxy-4,7,9,12-tetramethyl-3-oxo-7-vinyldecahydro-4,9a-propancyclopenta[8]cyclo-5-yl)oxy)-2-oxoethyl)thio)-3H-imidazo[4,5-C]pyridine-5-ium]
3 | 64 | 64 | 128 | 128 | 64 | 64 | 64 | 128 | C=C[C@]1(C)C[C@@H](OC(=O)CSc2nc3cc[n+](Cc4cc(F)c(F)cc4F)cc3[nH]2)[C@]2(C)[C@H](C)CC[C@]3(CCC(=O)[C@H]32)[C@@H](C)[C@@H]1O [Compound g, 5-(2,4,5-trifluorobenzyl)-2-((2-(((3aR,4R,5R,7S,8S,9R,9aS,12R)-8-hydroxy-4,7,9,12-tetramethyl-3-oxo-7-vinyldecahydro-4,9a-propancyclopenta[8]cyclo-5-yl)oxy)-2-oxoethyl)thio)-3H-imidazo[4,5-C]pyridine-5-ium]
4 | 16 | 32 | 16 | 32 | 16 | 16 | 8 | 32 | C=C[C@]1(C)C[C@@H](OC(=O)CSc2nc3cc[n+](Cc4ccc(Cl)cc4)cc3[nH]2)[C@]2(C)[C@H](C)CC[C@]3(CCC(=O)[C@H]32)[C@@H](C)[C@@H]1O [Compound e, 5-(4-chlorobenzyl)-2-((2-(((3aR,4R,5R,7S,8S,9R,9aS,12R)-8-hydroxy-4,7,9,12-tetramethyl-3-oxo-7-vinyldecahydro-4,9a-propancyclopenta[8]cyclo-5-yl)oxy)-2-oxoethyl)thio)-3H-imidazo[4,5-C]pyridine-5-ium]
5 | 64 | 64 | 32 | 64 | 32 | 64 | 32 | 32 | C=C[C@]1(C)C[C@@H](OC(=O)CSc2nc3cc[n+](Cc4cc(F)ccc4C#N)cc3[nH]2)[C@]2(C)[C@H](C)CC[C@]3(CCC(=O)[C@H]32)[C@@H](C)[C@@H]1O [Compound m, 5-(2-cyano-5-fluorobenzyl)-2-((2-(((3aR,4R,5R,7S,8S,9R,9aS,12R)-8-hydroxy-4,7,9,12-tetramethyl-3-oxo-7-vinyldecahydro-4,9a-propancyclopenta[8]cyclo-5-yl)oxy)-2-oxoethyl)thio)-3H-imidazo[4,5-C]pyridine-5-ium]
6 | 16 | 4 | 32 | 16 | 8 | 16 | 32 | 16 | C=C[C@]1(C)C[C@@H](OC(=O)CSc2nc3cc[n+](Cc4ccc(OC)cc4)cc3[nH]2)[C@]2(C)[C@H](C)CC[C@]3(CCC(=O)[C@H]32)[C@@H](C)[C@@H]1O [Compound d, 5-(4-methoxybenzyl)-2-((2-(((3aR,4R,5R,7S,8S,9R,9aS,12R)-8-hydroxy-4,7,9,12-tetramethyl-3-oxo-7-vinyldecahydro-4,9a-propancyclopenta[8]cyclo-5-yl)oxy)-2-oxoethyl)thio)-3H-imidazo[4,5-C]pyridine-5-ium]
7 | 64 | 64 | 32 | 64 | 32 | 64 | 32 | 128 | C=C[C@]1(C)C[C@@H](OC(=O)CSc2nc3cc[n+](Cc4cc(OC)cc(OC)c4)cc3[nH]2)[C@]2(C)[C@H](C)CC[C@]3(CCC(=O)[C@H]32)[C@@H](C)[C@@H]1O [Compound n, 5-(3,5-dimethoxybenzyl)-2-((2-(((3aR,4R,5R,7S,8S,9R,9aS,12R)-8-hydroxy-4,7,9,12-tetramethyl-3-oxo-7-vinyldecahydro-4,9a-propancyclopenta[8]cyclo-5-yl)oxy)-2-oxoethyl)thio)-3H-imidazo[4,5-C]pyridine-5-ium]
8 | 8 | 16 | 8 | 8 | 2 | 4 | 4 | 4 | C=C[C@]1(C)C[C@@H](OC(=O)CSc2nc3cc[n+](Cc4ccc([N+](=O)[O-])cc4)cc3[nH]2)[C@]2(C)[C@H](C)CC[C@]3(CCC(=O)[C@H]32)[C@@H](C)[C@@H]1O [Compound f, 5-(4-nitrobenzyl)-2-((2-(((3aR,4R,5R,7S,8S,9R,9aS,12R)-8-hydroxy-4,7,9,12-tetramethyl-3-oxo-7-vinyldecahydro-4,9a-propancyclopenta[8]cyclo-5-yl)oxy)-2-oxoethyl)thio)-3H-imidazo[4,5-C]pyridine-5-ium]
9 | 64 | 32 | 16 | 32 | 64 | 32 | 64 | 16 | C=C[C@]1(C)C[C@@H](OC(=O)CSc2nc3cc[n+](Cc4ccc(C(F)(F)F)cc4)cc3[nH]2)[C@]2(C)[C@H](C)CC[C@]3(CCC(=O)[C@H]32)[C@@H](C)[C@@H]1O [Compound b, 5-(4-trifluoromethyl)-2-((2-(((3aR,4R,5R,7S,8S,9R,9aS,12R)-8-hydroxy-4,7,9,12-tetramethyl-3-oxo-7-vinyldecahydro-4,9a-propancyclopenta[8]cyclo-5-yl)oxy)-2-oxoethyl)thio)-3H-imidazo[4,5-C]pyridine-5-ium]
10 | 32 | 8 | 8 | 8 | 16 | 16 | 4 | 16 | C=C[C@]1(C)C[C@@H](OC(=O)CSc2nc3cc[n+](Cc4ccc(F)cc4)cc3[nH]2)[C@]2(C)[C@H](C)CC[C@]3(CCC(=O)[C@H]32)[C@@H](C)[C@@H]1O [Compound c, 5-(4-fluorobenzyl)-2-((2-(((3aR,4R,5R,7S,8S,9R,9aS,12R)-8-hydroxy-4,7,9,12-tetramethyl-3-oxo-7-vinyldecahydro-4,9a-propancyclopenta[8]cyclo-5-yl)oxy)-2-oxoethyl)thio)-3H-imidazo[4,5-C]pyridine-5-ium]
